These results are taken from patent US8198452B2, “Polymorphic forms and process” (Merck Patent Gesellschaft MIT Beschränkter Haftung, priority 2006, dated 2012).

Assay type in all cases: physicochemical
Series [1] can be described thus: stability of the basic, non-salt form.
Series [2] is described as follows: hygroscopicity of crystalline forms.
Series [3] in a line: thermodynamic stability of crystalline forms. Particulars: versus form A2, A3 (b74 also the amorphous form, especially at room temperature).
The nature of series [4]: chemical stability (thermal stability and light stability). From the text: The expression chemical stability includes, but is not limited to, thermal stability and light stability.

SMILES strings stand for the structures.

As to `CN(C)CCNC(=O)NC[C@H]1CC[C@@H]2[C@H](O1)c1cc(C(F)(F)F)ccc1N[C@H]2c1ccccc1` [compound of formula II, 1-(2-Dimethylamino-ethyl)-3-((2R,4aS,5R,10bS)-5-phenyl-9-trifluoromethyl-3,4,4a,5,6,10b-hexahydro-2H-pyrano[3,2-c]quinolin-2-ylmethyl)-urea], the “stability in basic, i.e. non-salt, form” value in series [1] was “especially stable”.

On to `CN(C)CCNC(=O)NC[C@H]1CC[C@@H]2[C@H](O1)c1cc(C(F)(F)F)ccc1N[C@H]2c1ccccc1` [Form A1, 1-(2-Dimethylamino-ethyl)-3-((2R,4aS,5R,10bS)-5-phenyl-9-trifluoromethyl-3,4,4a,5,6,10b-hexahydro-2H-pyrano[3,2-c]quinolin-2-ylmethyl)-urea], for which the hygroscopicity result in series [2] is recorded as “essentially non-hygroscopic”. The “hygroscopicity compared with other forms” value in series [2] (versus form A2, A3 and the amorphous form, especially at room temperature) is “less hygroscopic than form A2, A3 and the amorphous form”. Moreover, in series [3], the “thermodynamic stability compared with other forms” value was “thermodynamically more stable than form A2 and A3”. In series [4], the “chemical stability (shelf-life, thermal stability and light stability)” value was “better chemical stability”.
